Measurements published in ChEMBL document CHEMBL4308841, “Synthesis, in vitro antiproliferative activity, and kinase inhibitory effects of pyrazole-containing diarylureas and diarylamides” (Eur J Med Chem, 2018).

Tests used:
TK-10 = test: Growth inhibition of human TK10 cells assessed as cell growth at 10 uM incubated for 48 hrs by sulforhodamine B assay relative to control; type: functional; conditions: TK-10, 48 h, read-out: Activity
HT-29 = test: Growth inhibition of human HT-29 cells incubated for 48 hrs by sulforhodamine B assay; type: functional, cell-based; conditions: HT-29, 48 h
LOX IMVI = test: Growth inhibition of human LOXIMVI cells incubated for 48 hrs by sulforhodamine B assay; type: functional
MDA-MB-435 [1] = test: Growth inhibition of human MDA-MB-435 cells incubated for 48 hrs by sulforhodamine B assay; type: functional, cell-based; conditions: MDA-MB-435, 48 h
OVCAR-4 [2] = test: Growth inhibition of human OVCAR4 cells incubated for 48 hrs by sulforhodamine B assay; type: functional, cell-based; conditions: OVCAR-4, 48 h
OVCAR-5 = test: Growth inhibition of human OVCAR5 cells incubated for 48 hrs by sulforhodamine B assay; type: functional, cell-based; conditions: OVCAR-5, 48 h
786-0 = test: Growth inhibition of human 786-0 cells incubated for 48 hrs by sulforhodamine B assay; type: functional, cell-based; conditions: 786-0, 48 h
A498 = test: Growth inhibition of human A498 cells incubated for 48 hrs by sulforhodamine B assay; type: functional, cell-based; conditions: A498, 48 h
MDA-MB-468 = test: Growth inhibition of human MDA-MB-468 cells incubated for 48 hrs by sulforhodamine B assay; type: functional, cell-based; conditions: MDA-MB-468, 48 h
SR = test: Growth inhibition of human SR cells assessed as cell growth at 0.01 uM incubated for 48 hrs by sulforhodamine B assay relative to control; type: functional; conditions: read-out: Activity
SW-620 = test: Growth inhibition of human SW620 cells assessed as cell growth at 0.01 uM incubated for 48 hrs by sulforhodamine B assay relative to control; type: functional; conditions: SW-620, 48 h, read-out: Activity
SNB-19 = test: Growth inhibition of human SNB19 cells assessed as cell growth at 0.01 uM incubated for 48 hrs by sulforhodamine B assay relative to control; type: functional; conditions: SNB-19, 48 h, read-out: Activity
U-251 = test: Growth inhibition of human U251 cells assessed as cell growth at 0.01 uM incubated for 48 hrs by sulforhodamine B assay relative to control; type: functional; conditions: U-251, 48 h, read-out: Activity
OVCAR-4 [3] = test: Growth inhibition of human OVCAR4 cells assessed as cell growth at 0.01 uM incubated for 48 hrs by sulforhodamine B assay relative to control; type: functional; conditions: OVCAR-4, 48 h, read-out: Activity
T47D = test: Growth inhibition of human T47D cells assessed as cell growth at 0.01 uM incubated for 48 hrs by sulforhodamine B assay relative to control; type: functional; conditions: read-out: Activity
K562 = test: Growth inhibition of human K562 cells assessed as cell growth at 0.1 uM incubated for 48 hrs by sulforhodamine B assay relative to control; type: functional; conditions: K562, 48 h, read-out: Activity
M14 = test: Growth inhibition of human M14 cells assessed as cell growth at 0.1 uM incubated for 48 hrs by sulforhodamine B assay relative to control; type: functional; conditions: M14, 48 h, read-out: Activity
SK-MEL-2 = test: Growth inhibition of human SK-MEL-2 cells assessed as cell growth at 0.1 uM incubated for 48 hrs by sulforhodamine B assay relative to control; type: functional; conditions: SK-MEL-2, 48 h, read-out: Activity
OVCAR-8 = test: Growth inhibition of human OVCAR8 cells assessed as cell growth at 0.1 uM incubated for 48 hrs by sulforhodamine B assay relative to control; type: functional; conditions: OVCAR-8, 48 h, read-out: Activity
MOLT-4 = test: Growth inhibition of human MOLT4 cells assessed as cell growth at 1 uM incubated for 48 hrs by sulforhodamine B assay relative to control; type: functional; conditions: MOLT-4, 48 h, read-out: Activity
A549 = test: Growth inhibition of human A549/ATCC cells assessed as cell growth at 1 uM incubated for 48 hrs by sulforhodamine B assay relative to control; type: functional; conditions: A549, 48 h, read-out: Activity
NCI-H226 = test: Growth inhibition of human NCI-H226 cells assessed as cell growth at 1 uM incubated for 48 hrs by sulforhodamine B assay relative to control; type: functional; conditions: NCI-H226, 48 h, read-out: Activity
HCC 2998 = test: Growth inhibition of human HCC2998 cells assessed as cell growth at 1 uM incubated for 48 hrs by sulforhodamine B assay relative to control; type: functional; conditions: HCC 2998, 48 h, read-out: Activity
MDA-MB-435 [4] = test: Growth inhibition of human MDA-MB-435 cells assessed as cell growth at 1 uM incubated for 48 hrs by sulforhodamine B assay relative to control; type: functional; conditions: MDA-MB-435, 48 h, read-out: Activity
Hs-578T = test: Growth inhibition of human Hs578T cells assessed as cell growth at 1 uM incubated for 48 hrs by sulforhodamine B assay relative to control; type: functional; conditions: read-out: Activity
HCT-116 = test: Growth inhibition of human HCT116 cells assessed as cell growth at 100 uM incubated for 48 hrs by sulforhodamine B assay relative to control; type: functional; conditions: HCT-116, 48 h, read-out: Activity
HCT-15 = test: Growth inhibition of human HCT15 cells assessed as cell growth at 100 uM incubated for 48 hrs by sulforhodamine B assay relative to control; type: functional; conditions: HCT-15, 48 h, read-out: Activity
OVCAR-3 = test: Growth inhibition of human OVCAR3 cells assessed as cell growth at 100 uM incubated for 48 hrs by sulforhodamine B assay relative to control; type: functional; conditions: OVCAR-3, 48 h, read-out: Activity
[5] = read-out: LC50 (the source's name)
[6] = read-out: pLC50 (the source's name) (converted)

In the case of `O=C(Nc1cccc(-n2cc(-c3ccncc3)c(-c3cc(O)cc(Cl)c3)n2)c1)c1cc(C(F)(F)F)cc(C(F)(F)F)c1`, the growth at 10 µM (TK-10) is reported as 73%, the GI50 (HT-29; read-out: GI50) is reported as 2.5 µM and the CC50 (HT-29; [5]) is reported as > 100 µM. For the same molecule, the TGI (HT-29; read-out: TGI) was 37.7 µM, the GI50 (HT-29; read-out: pGI50 (converted)) was 2.51 µM and the CC50 (HT-29; [6]) was > 100 µM. For the same molecule, the TGI (HT-29; read-out: pTGI (converted)) was 38 µM, the GI50 (LOX IMVI; read-out: GI50) was 3.29 µM and the CC50 (LOX IMVI; [5]) was > 100 µM. The TGI (LOX IMVI; read-out: TGI) was 13.7 µM, the GI50 (LOX IMVI; read-out: pGI50 (converted)) was 3.31 µM and the CC50 (LOX IMVI; [6]) was > 100 µM. For the same molecule, the TGI (LOX IMVI; read-out: pTGI (converted)) was 13.8 µM, the GI50 (MDA-MB-435 [1]; read-out: GI50) was 3.18 µM and the LC50 (MDA-MB-435 [1]; read-out: LC50) was > 100 µM. For the same molecule, the TGI (MDA-MB-435 [1]; read-out: TGI) was > 100 µM, the GI50 (MDA-MB-435 [1]; read-out: pGI50 (converted)) was 3.16 µM and the LC50 (MDA-MB-435 [1]; read-out: pLC50 (converted)) was > 100 µM. The TGI (MDA-MB-435 [1]; read-out: pTGI (converted)) was > 100 µM, the GI50 (OVCAR-4 [2]; read-out: GI50) was 8.53 µM and the CC50 (OVCAR-4 [2]; [5]) was > 100 µM. The TGI (OVCAR-4 [2]; read-out: TGI) was > 100 µM, the GI50 (OVCAR-4 [2]; read-out: pGI50 (converted)) was 8.51 µM and the CC50 (OVCAR-4 [2]; [6]) was > 100 µM. For the same molecule, the TGI (OVCAR-4 [2]; read-out: pTGI (converted)) was > 100 µM, the GI50 (OVCAR-5; read-out: GI50) was 8.23 µM and the CC50 (OVCAR-5; [5]) was > 100 µM. The TGI (OVCAR-5; read-out: TGI) was 38.4 µM, the GI50 (OVCAR-5; read-out: pGI50 (converted)) was 8.32 µM and the CC50 (OVCAR-5; [6]) was > 100 µM. For the same molecule, the TGI (OVCAR-5; read-out: pTGI (converted)) was 38 µM, the GI50 (786-0; read-out: GI50) was 3.12 µM and the CC50 (786-0; [5]) was > 100 µM. The TGI (786-0; read-out: TGI) was 21.1 µM, the GI50 (786-0; read-out: pGI50 (converted)) was 3.09 µM and the CC50 (786-0; [6]) was > 100 µM. The TGI (786-0; read-out: pTGI (converted)) was 20.9 µM, the GI50 (A498; read-out: GI50) was 4.75 µM and the CC50 (A498; [5]) was > 100 µM. For the same molecule, the TGI (A498; read-out: TGI) was 90.8 µM, the GI50 (A498; read-out: pGI50 (converted)) was 4.79 µM and the CC50 (A498; [6]) was > 100 µM. For the same molecule, the TGI (A498; read-out: pTGI (converted)) was 91.2 µM, the IC50 (MDA-MB-468) was 3.1 µM and the GI50 (MDA-MB-468; read-out: GI50) was 3.1 µM. The CC50 (MDA-MB-468; [5]) was > 100 µM, the TGI (MDA-MB-468; read-out: TGI) was > 100 µM and the GI50 (MDA-MB-468; read-out: pGI50 (converted)) was 3.09 µM. For the same molecule, the CC50 (MDA-MB-468; [6]) was > 100 µM, the TGI (MDA-MB-468; read-out: pTGI (converted)) was > 100 µM and the growth at 0.01 µM (SR) was 94%. It also gave a growth at 0.01 µM (SW-620) of 99%, a growth at 0.01 µM (SNB-19) of 97% and a growth at 0.01 µM (U-251) of 96%. For the same molecule, the growth at 0.01 µM (OVCAR-4 [3]) was 96%, the growth at 0.01 µM (T47D) was 102% and the growth at 0.1 µM (K562) was 89%. It also gave a growth at 0.1 µM (M14) of 93%, a growth at 0.1 µM (SK-MEL-2) of 93% and a growth at 0.1 µM (OVCAR-8) of 100%. For the same molecule, the growth at 1 µM (MOLT-4) was 78%, the growth at 1 µM (A549) was 74% and the growth at 1 µM (NCI-H226) was 91%. The growth at 1 µM (HCC 2998) was 96%, the growth at 1 µM (MDA-MB-435 [4]) was 88% and the growth at 1 µM (Hs-578T) was 92%. It also gave a growth at 100 µM (HCT-116) of 5%, a growth at 100 µM (HCT-15) of -47% and a growth at 100 µM (OVCAR-3) of -10%.
